Assay results reported in the NIST ThermoML archive (doi:10.1016/j.tca.2014.08.033).

Conditions: Liquid, DSC

c1cncc(C2CCCCN2)c1 (configuration not stated) [(.+-.)-anabasine]
Conditions	vapor or sublimation pressure [kPa]
478 K	14.95
488 K	19.9
502.9 K	29.84
523 K	49.73
543.5 K	79.59
555.1 K	99.57
602.5 K	248.35
631.3 K	398.33
640.7 K	468.91
644.3 K	498.63

CN1CCC[C@H]1c1cccnc1 [(-)-3-(N-methylpyrrolidino)pyridine]
Conditions	vapor or sublimation pressure [kPa]
447.7 K	14.96
457.2 K	19.93
471.1 K	29.87
490.6 K	49.83
510.1 K	79.61
520.4 K	99.84
566.4 K	247.84
594.8 K	397.81
609.3 K	500.02
617.8 K	568.97

CCCCCCCCCCCCCCCC [hexadecane]
Conditions	vapor or sublimation pressure [kPa]
486.1 K	14.78
529.6 K	49.76
549.3 K	79.6
560.5 K	101.35
560.9 K	102.04

Cc1ccccc1 [toluene]
Conditions	vapor or sublimation pressure [kPa]
327.6 K	14.9
360.7 K	49.6
375.8 K	79.3
383.5 K	100.66
384.3 K	102.73
451 K	498.3
451.5 K	499.9
490.4 K	1009.3

CN1C(=O)CC[C@H]1c1cccnc1 [(S)-cotinine]
Conditions	vapor or sublimation pressure [kPa]
537.7 K	14.95
548.4 K	19.9
564.2 K	29.82
585.6 K	49.74
601.3 K	69.56
607.4 K	79.5
619.2 K	101.32
655.4 K	197.04
669.7 K	247.52

O [water]
Conditions	vapor or sublimation pressure [kPa]
354.7 K	49.7
366.85 K	79.6
373.47 K	100.66
406.69 K	298.53
425.39 K	498.99
